Source: BindingDB's records for doi:10.1021/jm960416g (Universidad Complutense, 1996)

Tests used:
[1] = molecular target: T1, 5-hydroxytryptamine receptor 1A (Rattus norvegicus, UniProt P19327); assay: Binding affinity towards rat 5-hydroxytryptamine 1A receptor using [3H]8-OH-DPAT radioligand.
T1 sequence (P19327 whole entry): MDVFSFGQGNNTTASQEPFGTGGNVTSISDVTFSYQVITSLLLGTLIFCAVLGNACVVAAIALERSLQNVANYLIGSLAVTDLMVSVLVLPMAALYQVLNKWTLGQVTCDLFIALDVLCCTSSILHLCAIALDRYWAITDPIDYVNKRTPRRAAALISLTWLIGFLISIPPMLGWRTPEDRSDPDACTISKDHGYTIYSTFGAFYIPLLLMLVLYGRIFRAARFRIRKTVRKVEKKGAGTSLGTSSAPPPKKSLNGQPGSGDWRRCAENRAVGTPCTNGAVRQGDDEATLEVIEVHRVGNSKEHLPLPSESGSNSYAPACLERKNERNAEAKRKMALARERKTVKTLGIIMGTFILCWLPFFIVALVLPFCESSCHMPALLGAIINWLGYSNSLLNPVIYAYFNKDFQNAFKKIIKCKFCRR

D(2) dopamine receptor = D(2) dopamine receptor (Rattus norvegicus, UniProt P61169); assay: Binding affinity towards dopamine receptor D2 using [3H]-raclopride radioligand.
Sequence of D(2) dopamine receptor (P61169 whole entry): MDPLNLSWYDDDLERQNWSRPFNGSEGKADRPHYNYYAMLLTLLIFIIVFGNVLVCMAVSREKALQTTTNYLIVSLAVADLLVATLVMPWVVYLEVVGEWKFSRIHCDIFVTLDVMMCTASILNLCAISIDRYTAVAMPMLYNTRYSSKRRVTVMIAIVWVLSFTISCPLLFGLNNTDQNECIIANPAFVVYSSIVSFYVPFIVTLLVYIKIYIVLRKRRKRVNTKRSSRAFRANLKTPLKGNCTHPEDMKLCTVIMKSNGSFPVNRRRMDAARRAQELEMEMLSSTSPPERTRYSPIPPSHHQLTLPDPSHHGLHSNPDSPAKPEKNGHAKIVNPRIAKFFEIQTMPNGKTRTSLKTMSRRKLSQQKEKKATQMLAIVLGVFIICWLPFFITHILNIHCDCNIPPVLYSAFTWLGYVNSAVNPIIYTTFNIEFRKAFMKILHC

Row | Ki [1] [nM] | Ki (D(2) dopamine receptor) [nM] | Structure (SMILES)
1 | > 1000 | > 1000 | O=c1n(CCCCN2CCN(c3ccc([N+](=O)[O-])cc3)CC2)c(O)c2n1CCC2
2 | – | > 1000 | O=c1n(CCCN2CCN(c3ccc(F)cc3)CC2)c(O)c2n1CCCC2
3 | – | > 10000 | O=c1n(CN2CCN(c3ccccc3)CC2)c(O)c2n1CCCC2 [2-(4-Phenyl-piperazin-1-ylmethyl)-tetrahydro-imidazo[1,5-a]pyridine-1,3-dione]
4 | – | > 10000 | O=c1n(CN2CCN(c3ccccc3)CC2)c(O)c2n1CCC2 [2-(4-Phenyl-piperazin-1-ylmethyl)-tetrahydro-pyrrolo[1,2-c]imidazole-1,3-dione]
5 | > 1000 | > 1000 | O=c1n(CCN2CCN(c3ccccc3)CC2)c(O)c2n1CCCC2 [2-[2-(4-Phenyl-piperazin-1-yl)-ethyl]-tetrahydro-imidazo[1,5-a]pyridine-1,3-dione]
6 | > 1000 | > 1000 | O=c1n(CCN2CCN(c3ccccc3)CC2)c(O)c2n1CCC2 [2-[2-(4-Phenyl-piperazin-1-yl)-ethyl]-tetrahydro-pyrrolo[1,2-c]imidazole-1,3-dione]
7 | – | > 1000 | O=c1n(CCCN2CCN(c3ccccc3)CC2)c(O)c2n1CCCC2 [2-[3-(4-Phenyl-piperazin-1-yl)-propyl]-tetrahydro-imidazo[1,5-a]pyridine-1,3-dione]
8 | – | > 1000 | O=c1n(CCCN2CCN(c3ccccc3)CC2)c(O)c2n1CCC2 [2-[3-(4-Phenyl-piperazin-1-yl)-propyl]-tetrahydro-pyrrolo[1,2-c]imidazole-1,3-dione]
9 | – | > 10000 | COc1ccccc1N1CCN(Cn2c(O)c3n(c2=O)CCCC3)CC1 [2-[4-(2-Methoxy-phenyl)-piperazin-1-ylmethyl]-tetrahydro-imidazo[1,5-a]pyridine-1,3-dione]
10 | – | > 1000 | COc1ccccc1N1CCN(Cn2c(O)c3n(c2=O)CCC3)CC1 [2-[4-(2-Methoxy-phenyl)-piperazin-1-ylmethyl]-tetrahydro-pyrrolo[1,2-c]imidazole-1,3-dione]
11 | – | > 10000 | O=c1n(CN2CCN(c3cccc(Cl)c3)CC2)c(O)c2n1CCCC2 [2-[4-(3-Chloro-phenyl)-piperazin-1-ylmethyl]-tetrahydro-imidazo[1,5-a]pyridine-1,3-dione]
12 | – | > 10000 | O=c1n(CN2CCN(c3cccc(Cl)c3)CC2)c(O)c2n1CCC2 [2-[4-(3-Chloro-phenyl)-piperazin-1-ylmethyl]-tetrahydro-pyrrolo[1,2-c]imidazole-1,3-dione]
13 | – | > 1000 | O=c1n(CN2CCN(c3cccc(C(F)(F)F)c3)CC2)c(O)c2n1CCCC2 [2-[4-(3-Trifluoromethyl-phenyl)-piperazin-1-ylmethyl]-tetrahydro-imidazo[1,5-a]pyridine-1,3-dione]
14 | – | > 1000 | O=c1n(CN2CCN(c3cccc(C(F)(F)F)c3)CC2)c(O)c2n1CCC2 [2-[4-(3-Trifluoromethyl-phenyl)-piperazin-1-ylmethyl]-tetrahydro-pyrrolo[1,2-c]imidazole-1,3-dione]
15 | – | > 10000 | O=c1n(CN2CCN(c3ccc(F)cc3)CC2)c(O)c2n1CCCC2 [2-[4-(4-Fluoro-phenyl)-piperazin-1-ylmethyl]-tetrahydro-imidazo[1,5-a]pyridine-1,3-dione]
16 | – | > 10000 | O=c1n(CN2CCN(c3ccc(F)cc3)CC2)c(O)c2n1CCC2 [2-[4-(4-Fluoro-phenyl)-piperazin-1-ylmethyl]-tetrahydro-pyrrolo[1,2-c]imidazole-1,3-dione]
17 | > 1000 | > 10000 | O=c1n(CN2CCN(c3ccc([N+](=O)[O-])cc3)CC2)c(O)c2n1CCCC2 [2-[4-(4-Nitro-phenyl)-piperazin-1-ylmethyl]-tetrahydro-imidazo[1,5-a]pyridine-1,3-dione]
18 | > 1000 | > 10000 | O=c1n(CN2CCN(c3ccc([N+](=O)[O-])cc3)CC2)c(O)c2n1CCC2 [2-[4-(4-Nitro-phenyl)-piperazin-1-ylmethyl]-tetrahydro-pyrrolo[1,2-c]imidazole-1,3-dione]
19 | – | > 1000 | O=c1n(CCCCN2CCN(c3ccccc3)CC2)c(O)c2n1CCCC2 [2-[4-(4-Phenyl-piperazin-1-yl)-butyl]-tetrahydro-imidazo[1,5-a]pyridine-1,3-dione]
20 | – | > 1000 | O=c1n(CCN2CCN(c3cccc(Cl)c3)CC2)c(O)c2n1CCCC2 [2-{2-[4-(3-Chloro-phenyl)-piperazin-1-yl]-ethyl}-tetrahydro-imidazo[1,5-a]pyridine-1,3-dione]

Row | Ki [1] [nM] | Ki (D(2) dopamine receptor) [nM] | Structure (SMILES)
21 | – | > 1000 | O=c1n(CCN2CCN(c3cccc(Cl)c3)CC2)c(O)c2n1CCC2 [2-{2-[4-(3-Chloro-phenyl)-piperazin-1-yl]-ethyl}-tetrahydro-pyrrolo[1,2-c]imidazole-1,3-dione]
22 | – | > 1000 | O=c1n(CCN2CCN(c3cccc(C(F)(F)F)c3)CC2)c(O)c2n1CCCC2 [2-{2-[4-(3-Trifluoromethyl-phenyl)-piperazin-1-yl]-ethyl}-tetrahydro-imidazo[1,5-a]pyridine-1,3-dione]
23 | – | > 1000 | O=c1n(CCN2CCN(c3cccc(C(F)(F)F)c3)CC2)c(O)c2n1CCC2 [2-{2-[4-(3-Trifluoromethyl-phenyl)-piperazin-1-yl]-ethyl}-tetrahydro-pyrrolo[1,2-c]imidazole-1,3-dione]
24 | > 10000 | > 10000 | O=c1n(CCN2CCN(c3ccc(F)cc3)CC2)c(O)c2n1CCCC2 [2-{2-[4-(4-Fluoro-phenyl)-piperazin-1-yl]-ethyl}-tetrahydro-imidazo[1,5-a]pyridine-1,3-dione]
25 | > 10000 | > 10000 | O=c1n(CCN2CCN(c3ccc(F)cc3)CC2)c(O)c2n1CCC2 [2-{2-[4-(4-Fluoro-phenyl)-piperazin-1-yl]-ethyl}-tetrahydro-pyrrolo[1,2-c]imidazole-1,3-dione]
26 | > 10000 | > 10000 | O=c1n(CCN2CCN(c3ccc([N+](=O)[O-])cc3)CC2)c(O)c2n1CCCC2 [2-{2-[4-(4-Nitro-phenyl)-piperazin-1-yl]-ethyl}-tetrahydro-imidazo[1,5-a]pyridine-1,3-dione]
27 | > 10000 | > 10000 | O=c1n(CCN2CCN(c3ccc([N+](=O)[O-])cc3)CC2)c(O)c2n1CCC2 [2-{2-[4-(4-Nitro-phenyl)-piperazin-1-yl]-ethyl}-tetrahydro-pyrrolo[1,2-c]imidazole-1,3-dione]
28 | – | > 1000 | COc1ccccc1N1CCN(CCCn2c(O)c3n(c2=O)CCCC3)CC1 [2-{3-[4-(2-Methoxy-phenyl)-piperazin-1-yl]-propyl}-tetrahydro-imidazo[1,5-a]pyridine-1,3-dione]
29 | – | > 1000 | COc1ccccc1N1CCN(CCCn2c(O)c3n(c2=O)CCC3)CC1 [2-{3-[4-(2-Methoxy-phenyl)-piperazin-1-yl]-propyl}-tetrahydro-pyrrolo[1,2-c]imidazole-1,3-dione]
30 | – | > 1000 | O=c1n(CCCN2CCN(c3cccc(Cl)c3)CC2)c(O)c2n1CCCC2 [2-{3-[4-(3-Chloro-phenyl)-piperazin-1-yl]-propyl}-tetrahydro-imidazo[1,5-a]pyridine-1,3-dione]
31 | – | > 1000 | O=c1n(CCCN2CCN(c3cccc(Cl)c3)CC2)c(O)c2n1CCC2 [2-{3-[4-(3-Chloro-phenyl)-piperazin-1-yl]-propyl}-tetrahydro-pyrrolo[1,2-c]imidazole-1,3-dione]
32 | – | > 1000 | O=c1n(CCCN2CCN(c3cccc(C(F)(F)F)c3)CC2)c(O)c2n1CCCC2 [2-{3-[4-(3-Trifluoromethyl-phenyl)-piperazin-1-yl]-propyl}-tetrahydro-imidazo[1,5-a]pyridine-1,3-dione]
33 | – | > 1000 | O=c1n(CCCN2CCN(c3cccc(C(F)(F)F)c3)CC2)c(O)c2n1CCC2 [2-{3-[4-(3-Trifluoromethyl-phenyl)-piperazin-1-yl]-propyl}-tetrahydro-pyrrolo[1,2-c]imidazole-1,3-dione]
34 | > 1000 | > 1000 | O=c1n(CCCN2CCN(c3ccc(F)cc3)CC2)c(O)c2n1CCC2 [2-{3-[4-(4-Fluoro-phenyl)-piperazin-1-yl]-propyl}-tetrahydro-pyrrolo[1,2-c]imidazole-1,3-dione]
35 | > 10000 | > 10000 | O=c1n(CCCN2CCN(c3ccc([N+](=O)[O-])cc3)CC2)c(O)c2n1CCCC2 [2-{3-[4-(4-Nitro-phenyl)-piperazin-1-yl]-propyl}-tetrahydro-imidazo[1,5-a]pyridine-1,3-dione]
36 | > 10000 | > 10000 | O=c1n(CCCN2CCN(c3ccc([N+](=O)[O-])cc3)CC2)c(O)c2n1CCC2 [2-{3-[4-(4-Nitro-phenyl)-piperazin-1-yl]-propyl}-tetrahydro-pyrrolo[1,2-c]imidazole-1,3-dione]
37 | – | > 1000 | COc1ccccc1N1CCN(CCCCn2c(O)c3n(c2=O)CCCC3)CC1 [2-{4-[4-(2-Methoxy-phenyl)-piperazin-1-yl]-butyl}-tetrahydro-imidazo[1,5-a]pyridine-1,3-dione]
38 | – | > 1000 | O=c1n(CCCCN2CCN(c3cccc(C(F)(F)F)c3)CC2)c(O)c2n1CCC2 [2-{4-[4-(3-Trifluoromethyl-phenyl)-piperazin-1-yl]-butyl}-tetrahydro-pyrrolo[1,2-c]imidazole-1,3-dione]
39 | – | > 1000 | O=c1n(CCCCN2CCN(c3ccc(F)cc3)CC2)c(O)c2n1CCC2 [2-{4-[4-(4-Fluoro-phenyl)-piperazin-1-yl]-butyl}-tetrahydro-pyrrolo[1,2-c]imidazole-1,3-dione]
40 | > 1000 | > 1000 | O=c1n(CCCCN2CCN(c3ccc([N+](=O)[O-])cc3)CC2)c(O)c2n1CCCC2 [2-{4-[4-(4-Nitro-phenyl)-piperazin-1-yl]-butyl}-tetrahydro-imidazo[1,5-a]pyridine-1,3-dione]
